Measurements: patent US6071907A, “Tricyclic compounds useful as FPT inhibitors” (Schering Corporation, priority 1997, dated 2000)
Read-outs that look alike come from different tables or passages of the source.

Target: T1, partially purified rat brain farnesyl protein transferase (FPT) (Rattus norvegicus, UniProt Q02293+Q04631)
T1 construct: partially purified rat brain farnesyl protein transferase (FPT); from tissue; host or cells: rat brain (partially purified enzyme)
Assay: FPT IC50 (inhibition of farnesyl protein transferase, in vitro enzyme assay); Ras-CVLS farnesylation
Format: biochemical
Experimental: In vitro enzyme assays: FPT IC50 (inhibition of farnesyl protein transferase, in vitro enzyme assay) are determined by the methods disclosed in […] or WO 95/10516.

[1] = in vitro enzyme assay, Ras-CVLS farnesylation, partially purified rat brain FPT, read-out: FPT IC50

Row | SMILES | IC50 | IC50 [1]
1 | CCC1Cc2cc(Cl)cc(Cl)c2C(N2CCN(C(=O)Cc3cc[n+]([O-])cc3)CC2)c2ncc(Br)cc21 (racemic) [Example 3] | 6 nM | –
2 | O=C(CN1C(=O)c2ccccc2C1=O)N1CCC(C2c3ncc(Br)cc3CCc3cc(Cl)cc(Cl)c32)CC1 (single isomer, unassigned; (+)) [Example 4, (+)-4-(3-bromo-8,10-dichloro-6,11-dihydro-5H-benzo[5,6]cyclohepta[1,2-b]pyridin-11-yl)-1-[2-(1,3-dihydro-1,3-dioxo-2H-isoindol-2-yl)-1-oxoethyl]piperidine] | – | 18.6 nM
3 | O=C(CN1CCSCC1)N1CCC(C2c3ccc(Cl)c(Br)c3CCc3cc(Br)cnc32)CC1 (centres unmarked) [Example 1, 4-[8-Chloro-3,7-dibromo-5,6-dihydro-11H-benzo [5, 6]cyclohepta[1,2-b]pyridin-11-yl]-1-(4-thiomorpholinylacetyl)piperidine] | – | 8.9 nM
4 | O=C(CN1CC[S+]([O-])CC1)N1CCC(C2c3ccc(Cl)c(Br)c3CCc3cc(Br)cnc32)CC1 (centres unmarked) [Example 2, 4-[8-Chloro-3,7-dibromo-6,11-dihydro-5H-benzo[5,6]cyclohepta[1,2-b]pyridin-11-yl]-1-(4-thiomorpholinylacetyl)piperidine S-oxide] | – | 6.8 nM
5 | CCC(=O)N1CCC(CC(=O)N2CCC([C@H]3c4ncc(Br)cc4CCc4cc(Cl)cc(Br)c43)CC2)CC1 [Example 5, (+)-4-(3,10-Dibromo-8-chloro-6,11-dihydro-5H-benzo[5,6]cyclohepta[1,2-b]pyridin-11 (R)-yl)-1-[(1-oxopropyl-4-piperidinyl)acetyl]piperidine] | – | 6.8 nM
